Experimental data taken from patent US8679478B2, “Methods of lysosomal storage disease therapy” (Duke University, priority 2010, dated 2014).

Tests used:
Format in all cases: in vivo, mouse
[1] = tested on: immune tolerant GAA-KO mice; experiment: Glycogen content in tissues, ERT plus β2 agonist (Example 6)
Method: (§1) Male GAA-KO mice were administered four weekly doses of 20 mg/kg body weight of rhGAA and sacrificed one week following the last injection. Groups of mice were treated with clenbuterol (n=6), albuterol (n=4) or untreated (n=6). Mice were euthanized for tissue analysis 5 weeks after initiation of ERT.
(§2) Cerebral and cerebellar hemispheres were analyzed 5 weeks following the initiation of ERT. Groups of mice were treated with clenbuterol (n=6), albuterol (n=4) or untreated (n=6).
(§3) Two β2 agonists were evaluated in combination with ERT, clenbuterol and albuterol. […] Groups of 3 month-old immune tolerant GAA-KO mice (Raben et al., Human Mol. Genet., 2001, 10:2039-2047) were treated with four weekly doses of rhGAA (20 mg/kg body weight), with or without concurrent β2 agonist treatment.
(§4) Mice were sacrificed 7 days after the last injection. Selected tissues were collected for GAA enzyme activity and glycogen content analyses. All animal procedures were done in accordance with Duke University Institutional Animal Care and Use Committee-approved guidelines. GAA activity and glycogen content analyses, Rotarod testing, and Western blot detection of CI-MPR was performed essentially as described (Koeberl et al., Mol. Genet. Metab., 2011, 103:107-112. Wire hang testing was performed with a 0.5 cm mesh hardware cloth fixed to an 8 by 10 inch frame. Mice were placed on the wire mesh, which was slowly inverted 6 inches over a cage containing paper bedding. The latency, or time until the mouse fell into the cage, was recorded.

GAA-KO mice [2] = experiment: Glycogen content in muscles, ERT plus clenbuterol or albuterol; settings: ERT plus albuterol 30 μg/ml drinking water
Method: FIG. 8A-8C depicts increased GAA uptake and increased glycogen clearance in GAA-KO mice following clenbuterol treatment and ERT. […] GAA-KO mice were administered four weekly doses of rhGAA (20 mg/kg), and treated with clenbuterol (n=6) or untreated (n=5). […] Mean+/−standard deviation are shown. Statistically significant differences indicated (*=p<0.05; **=p<0.01).
GAA-KO mice were treated with weekly rhGAA (20 mg/kg): with medium clenbuterol, […] (n=6), with low clenbuterol, 1.3 mg/ml (n=6), with albuterol 30 mg/ml (n=4), or without drug treatment (n=3). Drugs were administered in the drinking water. Mean+/−s.d. shown. Statistically significant differences indicated (*=p<0.05; **=p<0.01).
(§5) For in vivo analysis of AAV vectors, stocks were administered intravenously (via the retroorbital sinus) in 3 month-old and 15 month-old GAA-KO mice, and to 3 month-old tolerant GAA-KO and DKO mice. Clenbuterol (30 μg/ml) was administered to groups of 3 month-old vector-injected and mock-injected male GAA-KO mice in drinking water for 28 days. At the indicated time points post-injection, tissue samples were obtained and processed as described below. All animal procedures were done in accordance with Duke University Institutional Animal Care and Use Committee-approved guidelines. GAA activity and glycogen content were analyzed essentially as described (Sun et al., Mol. Ther., 2005, 11:889-898; Sun et al., Mol. Ther., 2005, 11: 57-65). Rotarod testing was performed essentially as described (Sun, B. D. et al. 2005). Western blotting of hGAA was performed essentially as described (Amalfitano et al., Proc. Natl. Acad. Sci. USA, 1999, 96: 8861-8866) using the hGAA monoclonal antibody (courtesy of Genzyme Corp., Framingham, Mass.) and the CI-MPR antibody (catalog number GTX28093; Gene Tex, Irvine, Calif.).
The efficacy from gene therapy was increased by β2 agonist stimulation from clenbuterol treatment, and this benefit might be expected to affect ERT in Pompe disease, as well. Therefore, groups of 3 month-old GAA-KO mice were treated with four weekly doses of rhGAA (20 mg/kg), with or without concurrent clenbuterol treatment.

[3] = tested on: immune tolerant GAA-KO mice; experiment: GAA activity in tissues, ERT plus β2 agonist (Example 6)
Method: as §1, §2, §3, §4

[4] = tested on: immune tolerant GAA-KO mice; experiment: Histopathology of brain, glycogen staining; settings: cerebellum; in comparison with ERT alone
Method: Histopathology was performed to examine brain involvement, and glycogen accumulations were detected in the cerebellum with ERT alone. Albuterol and clenbuterol each reduced the glycogen staining in the cerebellum, in comparison with ERT alone.

[5] = tested on: immune tolerant GAA-KO mice; experiment: Rotarod testing, ERT plus β2 agonist (Example 6); settings: one week later (than 4 weeks); albuterol 30 mg/l drinking water plus ERT v. ERT alone
Method: GAA-KO mice were administered four weekly doses of rhGAA (20 mg/kg), and treated with medium dose clenbuterol (n=7), albuterol (n=4) or untreated (n=6 or 3). […] Mean+/−standard deviation are shown. P values indicate statistically significant differences (lines).
Two β2 agonists were evaluated in combination with ERT, clenbuterol and albuterol. The dose of clenbuterol was reduced 5-fold from the concentration used in Example 4, to 6 mg/l in drinking water, while albuterol was evaluated at the higher dose (30 mg/l in drinking water). Groups of 3 month-old immune tolerant GAA-KO mice (Raben et al., Human Mol. Genet., 2001, 10:2039-2047) were treated with four weekly doses of rhGAA (20 mg/kg body weight), with or without concurrent β2 agonist treatment.
as §4, with “All animal procedures were done in accordance with Duke University Institutional Animal Care and Use Committee-approved guidelines.” left out

DKO mice = experiment: Glycogen clearance after rhGAA in DKO mice
Method: (§6) CI-MPR-KO mice were generated using a muscle-specific promoter (muscle creatine kinase; CK) and the cre/loxP conditional knock out system essentially as described previously (Wylie et al., Am. J. Pathol., 2003, 162: 321-328). The muscle-specific CI-MPR-KO mice were crossed with GAA-KO mice to generate muscle specific DKO mice). This mouse colony was subsequently screened to be GAA−/−, M6PR flox/flox and MCK-Cre positive. These DKO mice and age matched Pompe mice were administered four weekly doses of 20 or 100 mg/kg rhGAA and sacrificed 3 days after the last injection. Selected tissues were collected for GAA enzyme activity levels, glycogen content depletion and Western blot analysis. Pompe and DKO mice injected with vehicle were used as controls.
as §5
(§7) To further understand the role of CI-MPR in recombinant human GAA (rhGAA) uptake and glycogen clearance specifically in Pompe disease, muscle-specific CI-MPR-KO mice were crossed with GAA-KO (Pompe disease) mice. […]

[6] = tested on: CI-MPR-KO/GAA-KO (DKO) mice v. GAA-KO (Pompe disease) mice; experiment: GAA enzyme activity in tissues after rhGAA administration, DKO v. GAA-KO mice; settings: for GAA decrease in DKO v. GAA-KO (%): rhGAA four weekly doses, dose not given
Method: as §6, §5
(§8) To further understand the role of CI-MPR in recombinant human GAA (rhGAA) uptake and glycogen clearance specifically in Pompe disease, muscle-specific CI-MPR-KO mice were crossed with GAA-KO (Pompe disease) mice. The DKO mice were administered four weekly doses of 20 mg/kg and 100 mg/kg body weight of recombinant human rhGAA and sacrificed three days after the last injection to evaluate GAA enzyme levels and glycogen depletion in the target tissues. […]

GAA-KO mice [7] = experiment: Glycogen clearance after rhGAA in GAA-KO (Pompe) mice
Method: as §6, §5, §7

[8] = tested on: CI-MPR-KO/GAA-KO (DKO) mice v. GAA-KO (Pompe disease) mice; experiment: Glycogen content in tissues after rhGAA administration, DKO v. GAA-KO mice; settings: rhGAA four weekly doses, dose not given
Method: as §6, §5, §8

CC(C)(C)NCC(O)c1ccc(O)c(CO)c1 (stereo not drawn) [albuterol]
Glycogen content ([1]; cerebellum, β2 agonist plus ERT v. ERT alone): reduced significantly
Glycogen content ([1]; liver, albuterol plus ERT v. ERT alone): significantly reduced
Glycogen content ([1]; quadriceps, albuterol plus ERT v. ERT alone): significantly reduced
glycogen content of the quadriceps (GAA-KO mice [2]): trend toward decreasing
GAA activity ([3]; cerebellum, 5 weeks after initiation of ERT, clenbuterol p=0.08, albuterol p=0.09): trend toward increased GAA activity
GAA activity ([3]; tibialis anterior only, albuterol plus ERT v. ERT alone): increased
GAA activity in tissues with reduced glycogen content ([3]; β2 agonist plus ERT v. ERT alone): unchanged
glycogen staining (histopathology) [4]: reduced
Rotarod latency [5]: increased latency

rhGAA: recombinant human acid α-glucosidase used for enzyme replacement therapy (ERT) in Pompe disease
glycogen clearance (DKO mice; DKO mouse heart, rhGAA 100 mg/kg): 95%
glycogen clearance (DKO mice; heart of DKO mice, rhGAA 20 mg/kg): 7%
glycogen depletion (DKO mice; quadriceps of DKO mice, rhGAA 20 mg/kg): 8%
GAA decrease in DKO v. GAA-KO (%) ([6]; Diaphragm): 2%
GAA decrease in DKO v. GAA-KO (%) ([6]; Gastrocnemius): 72%
GAA decrease in DKO v. GAA-KO (%) ([6]; Heart): 47%
GAA decrease in DKO v. GAA-KO (%) ([6]; Quadriceps): 79%
GAA decrease in DKO v. GAA-KO (%) ([6]; Triceps): 76%
reduced rhGAA uptake in DKO mice as compared with Pompe mice ([6]; heart, 100 mg/kg rhGAA): 50%
rhGAA uptake (enzyme activity) in DKO v. GAA-KO mice ([6]; skeletal tissues (quadriceps, triceps, gastrocnemius), 20 and 100 mg/kg): significantly decreased uptake
glycogen clearance (GAA-KO mice [7]; GAA-KO mouse heart, rhGAA 100 mg/kg): 99%
glycogen clearance (GAA-KO mice [7]; heart of Pompe mice, rhGAA 20 mg/kg): 77%
glycogen depletion (GAA-KO mice [7]; quadriceps of GAA-KO mice, rhGAA 20 mg/kg): 55%
Glycogen increase in DKO v. GAA-KO (%) ([8]; Diaphragm): 192%
Glycogen increase in DKO v. GAA-KO (%) ([8]; Gastrocnemius): 340%
Glycogen increase in DKO v. GAA-KO (%) ([8]; Heart): 1600%
Glycogen increase in DKO v. GAA-KO (%) ([8]; Quadriceps): 300%
Glycogen increase in DKO v. GAA-KO (%) ([8]; Triceps): 425%
